Reference: the NIST ThermoML archive (doi:10.1021/je9010486)

Assay: cn = amount concentration of the nth substance listed, in mol/dm3
Details: 101 kPa, Liquid

OC[C@@H](O)[C@@H](O)CO [meso-1,2,3,4-butanetetrol] + O
Details | mass density, 293.15 K [kg/m3] | mass density, 303.15 K [kg/m3] | mass density, 313.15 K [kg/m3] | mass density, 323.15 K [kg/m3] | viscosity, 293.15 K [mPa·s] | viscosity, 303.15 K [mPa·s] | viscosity, 313.15 K [mPa·s] | viscosity, 323.15 K [mPa·s]
c1 = 0.1 | 1002.06 | 999.34 | 995.83 | 991.64 | 1.047 | 0.8541 | 0.6807 | 0.5663
c1 = 0.2 | 1005.36 | 1002.74 | 999.19 | 994.96 | 1.065 | 0.8706 | 0.7005 | 0.5849
c1 = 0.3 | 1009.37 | 1006.74 | 1003.09 | 998.81 | 1.088 | 0.8913 | 0.721 | 0.5986
c1 = 0.4 | 1012.65 | 1009.58 | 1006.3 | 1001.94 | 1.11 | 0.911 | 0.743 | 0.6171
c1 = 0.5 | 1016.16 | 1013.33 | 1009.63 | 1005.23 | 1.139 | 0.9366 | 0.7611 | 0.6351
c1 = 0.6 | 1019.38 | 1016.67 | 1012.43 | 1008.41 | 1.169 | 0.9634 | 0.7827 | 0.652
c1 = 0.7 | 1023.78 | 1020.8 | 1015.82 | 1012.27 | 1.213 | 1.002 | 0.8067 | 0.6734
c1 = 0.8 | 1026.82 | 1024.2 | 1019.15 | 1015.63 | 1.257 | 1.045 | 0.8339 | 0.6909
c1 = 0.9 | 1031.9 | 1027.8 | 1023.23 | 1019.38 | 1.306 | 1.087 | 0.861 | 0.7057
c1 = 1 | 1034.32 | 1031.18 | 1027.24 | 1022.64 | 1.338 | 1.137 | 0.8965 | 0.7251

OC[C@@H](O)[C@H](O)[C@@H](O)CO [xylitol] + O
Details | mass density, 293.15 K [kg/m3] | mass density, 303.15 K [kg/m3] | mass density, 313.15 K [kg/m3] | mass density, 323.15 K [kg/m3] | viscosity, 293.15 K [mPa·s] | viscosity, 303.15 K [mPa·s] | viscosity, 313.15 K [mPa·s] | viscosity, 323.15 K [mPa·s]
c1 = 0.1 | 1003.31 | 1000.96 | 997.16 | 992.72 | 1.068 | 0.858 | 0.685 | 0.5687
c1 = 0.2 | 1008.5 | 1005.78 | 1002.18 | 997.77 | 1.089 | 0.8774 | 0.7057 | 0.5916
c1 = 0.3 | 1013.42 | 1010.64 | 1006.99 | 1002.55 | 1.128 | 0.9121 | 0.7305 | 0.6093
c1 = 0.4 | 1018.54 | 1015.65 | 1011.95 | 1007.51 | 1.165 | 0.9452 | 0.764 | 0.6384
c1 = 0.5 | 1023.6 | 1020.49 | 1016.87 | 1012.42 | 1.207 | 0.9829 | 0.7869 | 0.6596
c1 = 0.6 | 1028.66 | 1025.38 | 1021.78 | 1017.34 | 1.25 | 1.021 | 0.825 | 0.6779
c1 = 0.7 | 1033.72 | 1030.28 | 1026.7 | 1022.25 | 1.313 | 1.079 | 0.8476 | 0.7063
c1 = 0.8 | 1038.78 | 1035.17 | 1031.62 | 1027.17 | 1.362 | 1.123 | 0.8825 | 0.7344
c1 = 0.9 | 1043.84 | 1040.06 | 1036.54 | 1032.09 | 1.423 | 1.178 | 0.923 | 0.7618
c1 = 1 | 1048.9 | 1044.95 | 1041.45 | 1037 | 1.473 | 1.223 | 0.9632 | 0.7896
